Results taken from US10815460B2, “Three-dimensional differentiation of epiblast spheroids to kidney organoids models stage-specific epithelial physiology, morphogenesis, and disease” (THE BRIGHAM AND WOMEN'S HOSPITAL, INC., priority 2015, dated 2020).
“Also recorded” adds a separate entry of the source.

Legend:
Type in all cases: cell-based, human
hPSC spheroids = test: hPSC spheroid cavity formation (lumenogenesis) in 3D sandwich culture
Text: Cell lines included H9 (WA09), BJ, HDFn, hLR5, hfib2-iPS4, and hfib2-iPS5 (human) and J1, R1, and v6 (mouse). Cells were maintained feeder-free on 3% Reduced Growth Factor GelTrex™ (Life Technologies) for at least one passage in media (mTeSR1 for hPSCs; […] supplement+2i in for mESCs; hESC conditioned media (CM)+leukemia inhibitory factor (LIF)+dox for hLR5 iPSCs) and dissociated with Accutase® or TrypLE™. LD-iPSCs were derived from native hLR5 iPSCs by withdrawing LIF and doxycycline and substituting with FGF2. For thin gel sandwich colonies, cells were plated at 60,000 (primed) or 30,000 (native) cells/well of a 24-well plate or 4-well chamber slide pre-coated with GelTrex™ in media supplemented with 10 μM Rho-kinase inhibitor Y27632 (StemGent). The following day the media was replaced with 500 μL 1.5% GelTrex™ in mTeSR1. Media was changed after 24 hours. […]
For fluorescence intensity quantifications, images were taken in a single imaging session and at identical exposures and processed identically. The number of cavitated colonies (ellipsoid with lumen) versus flat colonies (non-ellipsoid or without a lumen) was scored manually in phase contrast images of living cells, in which lumens were discerned more easily than in fixed samples. For apoptosis, cleaved caspase-3 expression was scored manually, confirmed by nuclear condensation, and divided by the total number of nuclei per wide-field epifluorescent image. […] For each colony, the summed ZO-1 expressing area was expressed as a percentage of the total surface area and then averaged. To quantify intensities, line scans of equal length were drawn through randomly selected structures imaged with identical exposures to obtain raw fluorescence values in NIS Elements software (Nikon). […] For CHIR-induced differentiation, […] individual cells were identified in low-magnification immunofluorescence images using Cell Profiler 2.0 and fluorescence intensities were measured automatically. […] Immunoblots were quantified using the ImageJ Gel Analyzer. […]

hPSCs = test: BRY immunofluorescence in hPSC cultures treated with CHIR in mTeSR1; details: 5˜M CHIR, 3D versus 2D cultures plated side-by-side
Text: FIG. 2. Cavitated spheroids represent epiblast. (a) Schematic of serial passaging experiment. (b) Representative brightfield images of hPSCs in 3D cultures which were dissociated (colored frames) and passaged (matching colored arrows). Dashed arrows represent serial passages in the 3D condition. […] (c) Hematoxylin and eosin-stained sections of teratomas generated from hPSC serial 3D passages p3, p6, and p9 showing pigmented epithelium (ectoderm), cartilage (mesoderm), and glandular epithelium (endoderm). (d) Cell number (average of duplicate counts for each time point, or AVG of all time points) in 2D and 3D cultures 72 hours after plating. […] (h) Morphology and (i) quantification (n=3) of hPSC colonies cultured in mTeSR1 plus CHIR, compared to controls in mTeSR1 alone. […]
For fluorescence intensity quantifications, images were taken in a single imaging session and at identical exposures and processed identically. The number of cavitated colonies (ellipsoid with lumen) versus flat colonies (non-ellipsoid or without a lumen) was scored manually in phase contrast images of living cells, in which lumens were discerned more easily than in fixed samples. For apoptosis, cleaved caspase-3 expression was scored manually, confirmed by nuclear condensation, and divided by the total number of nuclei per wide-field epifluorescent image. […] Immunoblots were quantified using the ImageJ Gel Analyzer. […]

tubular organoids = test: Transport of fluorescent cargoes in tubular organoids
Description: (§1) To test permeability, media was supplemented with 20 mM HEPES plus Lucifer Yellow™ carbohydrazide potassium salt (Invitrogen, 38 μM) and Rhodamine-8 isothiocyanate dextran (Sigma, 0.5 μM), and imaged by confocal microscopy. For microinjection, 5 μM rhodamine-conjugated dextran solution in mTeSR1 was diluted 1:1 with Phenol Red Solution (0.5%, Sigma) for visualization. 2 nl was microinjected via a pulled glass capillary microneedle on a Nanoject-2 micromanipulator, and monitored in real-time by wide-field epifluorescence. For TEER, 50,000 hPSCs were plated on 24-well transwell plates (Corning) pre-coated with dilute […]™. […] TEER was measured using an EVOM 2™ device (World Precision Instruments).
as §1, with “Rhodamine-B” for “Rhodamine-8”, “0.5” for “0.5 μM),”, “5” for “5 μM”

epiblast spheroids = test: Epiblast spheroids treated with titrations of cisplatin and gentamicin (KIM-1, toxicity)
Text: FIG. 20. […] Scale bars, 50 μm.
(§2) FIG. 27. […] (a) Co-localization of KIM-1 antibody AKG7 with LTL or (b) with a second KIM-1 antibody (KIMlab2). […] (e) Phase contrast time course of tubules in culture. After 120 days of culture (d120), tubules were fixed and stained for LTL. (f) Whole well of a 96-well plate showing kidney organoids. Scale bars, 50 μm. Error bars, s.e.m.

kidney organoids = test: KIM-1 induction in kidney organoids treated with nephrotoxic drugs
Text: as §2

Compound: Cc1c[nH]c(-c2cnc(NCCNc3ccc(C#N)cn3)nc2-c2ccc(Cl)cc2Cl)n1 [CHIR]
- spheroid formation (hPSC spheroids; CHIR added at the time of sandwiching, in mTeSR1): inhibited spheroid formation in a dose-dependent manner
- BRY expression (hPSCs): induced higher levels of BRY expression in 3D cultures than in 2D cultures

Compound: O=C(O)CN(CCN(CC(=O)O)CC(=O)O)CC(=O)O [EDTA]
- luminal RD signal intensity in loaded organoids (tubular organoids; 0.5 mM EDTA for one hour): decreased

Compound: C/C1=C/C(=O)O[C@@H]2C[C@@H](CC[C@H](C)/C=C\CC1)O[C@@](O)([C@@H]1CSC(=O)N1)C2 [latrunculin (Lat)B, Latrunculin B]
- effect on RD accumulation in tubular organoids (tubular organoids; co-incubation, 2 μM LatB): significantly reduced RD accumulation

Compound: gentamicin
- sensitivity of epiblast spheroids to drug (epiblast spheroids): exhibited dose-dependent sensitivity
- KIM-1 upregulation in epiblast spheroids (epiblast spheroids; any dose including 5 mM gentamicin): did not upregulate KIM-1; also recorded: No KIM-1 expression is observed
- KIM-1 expression in organoid tubules (kidney organoids; increasing concentrations, 36-48 hours, immunofluorescence): expressed apical kidney injury molecule-1 (KIM-1); also recorded: observed at moderate, sub-toxic doses
- concentration sufficient to induce KIM-1 in kidney organoids (kidney organoids; kidney organoids): ~5000 µM

Compound: protamine sulfate [PS]
- 3D cavity formation (hPSC spheroids; 8 μg/ml protamine sulfate): strongly inhibited 3D cavity formation
- podocalyxin localization (hPSC spheroids; 8 μg/ml protamine sulfate): mislocalization of podocalyxin to dispersed patches
